Test results as given in ChEMBL document CHEMBL1201862, “PubChem BioAssay data set” (2004).
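Five concentrations, 48 hours, 96-well plates. GI50 is the concentration that inhibits growth by half.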 Active and inactive are the calls of the source. No stated cut-off is given here; in the data, active = GI50 up to about 1.1 µM and inactive = higher.

Assays:
Assay in all cases: growth of human tumour cells (NCI), 48 h
786-0 = test system: 786-0
A498 = test system: A498
A549 = test system: A549
ACHN = test system: ACHN
BT-549 = test system: BT-549
CAKI-1 = test system: CAKI-1
CCRF-CEM = test system: CCRF-CEM
COLO 205 = test system: COLO 205
DU-145 = test system: DU-145
EKVX = test system: EKVX
HCC 2998 = test system: HCC 2998
HCT-116 = test system: HCT-116
HCT-15 = test system: HCT-15
HL-60 = test system: HL-60
HOP-62 = test system: HOP-62
HOP-92 = test system: HOP-92
HT-29 = test system: HT-29
Hs-578T = test system: Hs-578T
IGROV-1 = test system: IGROV-1
K562 = test system: K562
KM12 = test system: KM12
LOX IMVI = test system: LOX IMVI
M14 = test system: M14
MCF7 = test system: MCF7
MDA-MB-231 = test system: MDA-MB-231
MDA-MB-435 = test system: MDA-MB-435
MOLT-4 = test system: MOLT-4
Malme-3M = test system: Malme-3M
NCI-H226 = test system: NCI-H226
NCI-H23 = test system: NCI-H23
NCI-H460 = test system: NCI-H460
NCI-H522 = test system: NCI-H522
NCI/ADR-RES = test system: NCI/ADR-RES
OVCAR-3 = test system: OVCAR-3
OVCAR-4 = test system: OVCAR-4
OVCAR-5 = test system: OVCAR-5
OVCAR-8 = test system: OVCAR-8
PC-3 = test system: PC-3
RPMI-8226 = test system: RPMI-8226
SF-268 = test system: SF-268
SF-295 = test system: SF-295
SF-539 = test system: SF-539
SK-MEL-28 = test system: SK-MEL-28
SK-MEL-2 = test system: SK-MEL-2
SK-MEL-5 = test system: SK-MEL-5
SK-OV-3 = test system: SK-OV-3
SN12C = test system: SN12C
SNB-19 = test system: SNB-19
SNB-75 = test system: SNB-75
SR = test system: SR
SW-620 = test system: SW-620
T47D = test system: T47D
TK-10 = test system: TK-10
U-251 = test system: U-251
UACC-257 = test system: UACC-257
UACC-62 = test system: UACC-62
UO-31 = test system: UO-31
RXF 393 = test system: RXF 393

Structure (SMILES): Cc1ccc2c(c1)-c1c(C#N)c(N)nc(-c3ccccc3)c1CCS2(=O)=O
- GI50 (786-0): 6.38 µM (inactive)
- GI50 (A498): 8.71 µM (inactive)
- GI50 (A549): 11 µM (inactive)
- GI50 (ACHN): 8.53 µM (inactive)
- GI50 (BT-549): 12.1 µM (inactive)
- GI50 (CAKI-1): 10.5 µM (inactive)
- GI50 (CCRF-CEM): 1.23 µM (inactive)
- GI50 (COLO 205): 6.03 µM (inactive)
- GI50 (DU-145): 6.19 µM (inactive)
- GI50 (EKVX): 18.7 µM (inactive)
- GI50 (HCC 2998): 8.13 µM (inactive)
- GI50 (HCT-116): 6.38 µM (inactive)
- GI50 (HCT-15): 4.54 µM
- GI50 (HL-60): 0.204 µM (active)
- GI50 (HOP-62): 6.95 µM (inactive)
- GI50 (HOP-92): 56.5 µM (inactive)
- GI50 (HT-29): 3.78 µM (inactive)
- GI50 (Hs-578T): 5.98 µM (inactive)
- GI50 (IGROV-1): 5.31 µM (inactive)
- GI50 (K562): 1.97 µM (inactive)
- GI50 (KM12): 4.85 µM (inactive)
- GI50 (LOX IMVI): 12.6 µM (inactive)
- GI50 (M14): 4.54 µM (inactive)
- GI50 (MCF7): 4.48 µM (inactive)
- GI50 (MDA-MB-231): 17.5 µM (inactive)
- GI50 (MDA-MB-435): 1.72 µM (inactive)
- GI50 (MOLT-4): 7.53 µM (inactive)
- GI50 (Malme-3M): 2.45 µM (inactive)
- GI50 (NCI-H226): 5.36 µM (inactive)
- GI50 (NCI-H23): 8.65 µM (inactive)
- GI50 (NCI-H460): 4.17 µM (inactive)
- GI50 (NCI-H522): 1.12 µM (inactive)
- GI50 (NCI/ADR-RES): 5.26 µM (inactive)
- GI50 (OVCAR-3): 5.47 µM (inactive)
- GI50 (OVCAR-4): 52 µM (inactive)
- GI50 (OVCAR-5): 10.1 µM (inactive)
- GI50 (OVCAR-8): 11.7 µM (inactive)
- GI50 (PC-3): 13.4 µM (inactive)
- GI50 (RPMI-8226): 4.56 µM (inactive)
- GI50 (SF-268): 22.9 µM (inactive)
- GI50 (SF-295): 5.47 µM (inactive)
- GI50 (SF-539): 6.35 µM (inactive)
- GI50 (SK-MEL-28): 11.8 µM (inactive)
- GI50 (SK-MEL-2): > 29.2 µM (inactive)
- GI50 (SK-MEL-5): 3.03 µM (inactive)
- GI50 (SK-OV-3): 5.53 µM (inactive)
- GI50 (SN12C): 17.7 µM (inactive)
- GI50 (SNB-19): 4.16 µM (inactive)
- GI50 (SNB-75): 3.72 µM (inactive)
- GI50 (SR): 834 nM (active)
- GI50 (SW-620): 5.6 µM (inactive)
- GI50 (T47D): 15.1 µM (inactive)
- GI50 (TK-10): > 100 µM (inactive)
- GI50 (U-251): 8.22 µM (inactive)
- GI50 (UACC-257): 6.31 µM (inactive)
- GI50 (UACC-62): 3.84 µM (inactive)
- GI50 (UO-31): 13.4 µM (inactive)

Structure (SMILES): Oc1ccc(NCn2c(=S)sc3ccccc32)cc1
- GI50 (A498): > 100 µM (inactive)
- GI50 (A549): > 100 µM (inactive)
- GI50 (ACHN): > 100 µM (inactive)
- GI50 (BT-549): > 100 µM (inactive)
- GI50 (CAKI-1): > 100 µM (inactive)
- GI50 (CCRF-CEM): 32 µM (inactive)
- GI50 (COLO 205): > 100 µM (inactive)
- GI50 (DU-145): > 100 µM (inactive)
- GI50 (EKVX): > 100 µM (inactive)
- GI50 (HCC 2998): > 100 µM (inactive)
- GI50 (HCT-116): > 100 µM (inactive)
- GI50 (HCT-15): > 100 µM
- GI50 (HL-60): 59.6 µM (inactive)
- GI50 (HOP-62): > 100 µM (inactive)
- GI50 (HOP-92): 33 µM (inactive)
- GI50 (HT-29): > 100 µM (inactive)
- GI50 (Hs-578T): 50 µM (inactive)
- GI50 (IGROV-1): 33.2 µM (inactive)
- GI50 (K562): 22.3 µM (inactive)
- GI50 (KM12): > 100 µM (inactive)
- GI50 (LOX IMVI): > 100 µM (inactive)
- GI50 (M14): > 100 µM (inactive)
- GI50 (MCF7): 92.9 µM (inactive)
- GI50 (MDA-MB-231): > 100 µM (inactive)
- GI50 (MDA-MB-435): > 100 µM (inactive)
- GI50 (MOLT-4): 34.2 µM (inactive)
- GI50 (Malme-3M): > 100 µM (inactive)
- GI50 (NCI-H23): > 100 µM (inactive)
- GI50 (NCI-H460): > 100 µM (inactive)
- GI50 (NCI-H522): 17.7 µM (inactive)
- GI50 (NCI/ADR-RES): > 100 µM (inactive)
- GI50 (OVCAR-3): 97.9 µM (inactive)
- GI50 (OVCAR-4): 91 µM (inactive)
- GI50 (OVCAR-5): > 100 µM (inactive)
- GI50 (OVCAR-8): > 100 µM (inactive)
- GI50 (PC-3): > 100 µM (inactive)
- GI50 (RPMI-8226): 26.2 µM (inactive)
- GI50 (RXF 393): > 100 µM (inactive)
- GI50 (SF-268): > 100 µM (inactive)
- GI50 (SF-295): > 100 µM (inactive)
- GI50 (SF-539): > 100 µM (inactive)
- GI50 (SK-MEL-28): > 100 µM (inactive)
- GI50 (SK-MEL-2): > 100 µM (inactive)
- GI50 (SK-MEL-5): > 100 µM (inactive)
- GI50 (SK-OV-3): > 100 µM (inactive)
- GI50 (SN12C): > 100 µM (inactive)
- GI50 (SNB-19): > 100 µM (inactive)
- GI50 (SNB-75): 54.8 µM (inactive)
- GI50 (SW-620): 42.7 µM (inactive)
- GI50 (T47D): 34.4 µM (inactive)
- GI50 (TK-10): > 100 µM (inactive)
- GI50 (U-251): > 100 µM (inactive)
- GI50 (UACC-257): > 100 µM (inactive)
- GI50 (UACC-62): 84.5 µM (inactive)
- GI50 (UO-31): 89.9 µM (inactive)

Structure (SMILES): CCOC(=O)C1=C(C)N(Cc2ccccc2)C2(O)C(OC)CC(=O)C3C(=O)N(c4ccccc4)C(=O)C132 (stereo not drawn)
- GI50 (786-0): 8.07 µM (inactive)
- GI50 (A498): 21.5 µM (inactive)
- GI50 (A549): 7.74 µM (inactive)
- GI50 (ACHN): 10.4 µM (inactive)
- GI50 (BT-549): 4.97 µM (inactive)
- GI50 (CAKI-1): 17 µM (inactive)
- GI50 (CCRF-CEM): 3.91 µM (inactive)
- GI50 (COLO 205): 7.21 µM (inactive)
- GI50 (DU-145): 3.9 µM (inactive)
- GI50 (EKVX): 23.7 µM (inactive)
- GI50 (HCC 2998): 12.4 µM (inactive)
- GI50 (HCT-116): 6.3 µM (inactive)
- GI50 (HCT-15): 5.75 µM
- GI50 (HL-60): 3.93 µM (inactive)
- GI50 (HOP-62): 6.81 µM (inactive)
- GI50 (HOP-92): 14.2 µM (inactive)
- GI50 (HT-29): 4.9 µM (inactive)
- GI50 (Hs-578T): 83.4 µM (inactive)
- GI50 (IGROV-1): 15.7 µM (inactive)
- GI50 (K562): 4.43 µM (inactive)
- GI50 (KM12): 8.75 µM (inactive)
- GI50 (LOX IMVI): 3.39 µM (inactive)
- GI50 (M14): 19.9 µM (inactive)
- GI50 (MCF7): 3.61 µM (inactive)
- GI50 (MDA-MB-231): 13.5 µM (inactive)
- GI50 (MDA-MB-435): 5.05 µM (inactive)
- GI50 (MOLT-4): 7.45 µM (inactive)
- GI50 (Malme-3M): 14.5 µM (inactive)
- GI50 (NCI-H226): 15.1 µM (inactive)
- GI50 (NCI-H23): 15.8 µM (inactive)
- GI50 (NCI-H460): 6.98 µM (inactive)
- GI50 (NCI-H522): 5.98 µM (inactive)
- GI50 (NCI/ADR-RES): 13.8 µM (inactive)
- GI50 (OVCAR-3): 7.41 µM (inactive)
- GI50 (OVCAR-4): 4.84 µM (inactive)
- GI50 (OVCAR-5): 13.8 µM (inactive)
- GI50 (OVCAR-8): 5.53 µM (inactive)
- GI50 (PC-3): 7.73 µM (inactive)
- GI50 (RPMI-8226): 2.69 µM (inactive)
- GI50 (RXF 393): 5.69 µM (inactive)
- GI50 (SF-268): 9.33 µM (inactive)
- GI50 (SF-295): 15.2 µM (inactive)
- GI50 (SF-539): 15 µM (inactive)
- GI50 (SK-MEL-28): 7.33 µM (inactive)
- GI50 (SK-MEL-2): 7.57 µM (inactive)
- GI50 (SK-MEL-5): 10.3 µM (inactive)
- GI50 (SN12C): 10.6 µM (inactive)
- GI50 (SNB-19): 16.3 µM (inactive)
- GI50 (SR): 3550 nM (inactive)
- GI50 (SW-620): 4.93 µM (inactive)
- GI50 (T47D): 4.28 µM (inactive)
- GI50 (TK-10): 22.4 µM (inactive)
- GI50 (U-251): 6.53 µM (inactive)
- GI50 (UACC-257): 15.5 µM (inactive)
- GI50 (UACC-62): 5.66 µM (inactive)
- GI50 (UO-31): 13.3 µM (inactive)
